Measurements as given in patent publication US20050271588A1, “Liposome targeting of matrix metalloproteinase inhibitors” (priority 2001, published 2005).
Positions of bridges follow the written chain, without caps; N, C: chain ends. Residues, ends and D or L forms follow the SMILES beside them.

How the values were obtained:
[1] = Trp quenching by I- (Stern-Volmer); assay type: physicochemical; details: I- quencher
Protocol: The extent of exposure of Trp to the aqueous phase was studied using I— as a collisional quencher (Lakowicz, 1999). The extent of quenching was calculated by using the equation: F0/F=1+k[Q]=1+kqτ0[Q] where F0 and F are Trp fluorescence intensities at 345 nm in the absence and presence of the quencher, Q, τ0 is Trp fluorescence lifetime in the absence of the quencher, k is the Stern-Volmer constant (obtained from the slope of the linear fit of the data). Fluorescence of Trp in CTT (5 μM) and its quenching were measured in the absence and presence of POPC/POPE (80:20, mol/mol) LUVs (final lipid concentration of 0.5 mM). The results were corrected for background caused by PBS and liposomes. Assay for lipid mixing. The ability of the CTT, CLP, STT, and CWL peptides to induce liposome fusion was assessed by measuring lipid mixing, as described earlier (Struck et al., 1981). In brief, NBD-PE (X=0.01) and DPPRho (X=0.01) were incorporated into liposomes (POPC/POPE, 78/20, mol/mol). Due to the spectral overlap of NBD-PE (donor) emission and DPPRho (acceptor) absorption resonance energy transfer between these dyes is highly efficient. As liposomes containing NBD-PE and DPPRho are mixed with non-labeled liposomes, fusion is observed as an increase in the emission intensity of NBD-PE due to the dilution of probes. […] All fluorescence measurements were done at 37° C.

U937 cells [2] = assay: Cell killing by Adriamycin-containing liposomes, EthD-1 viability assay; assay type: cell-based; details: U937, 24 h, peptide 85 μM, Adriamycin 0.4 μM
Protocol: Viability assays. Peptide-liposome complexes with the encapsulated adriamycin were made as described above, yielding final concentrations of peptide, lipid, and adriamycin of 85 μM, 0.2 mM, and 0.4 μM, respectively, and were subsequently added to a ten μl (10^5 cells) sample of U937 cells. For the detection of dead cells EthD-1 was used. This fluorophore is membrane-impermeable and emits fluorescence only when bound to DNA (Papadopoulos et al., 1994). Accordingly, EthD-1 readily enters dead cells and binds to their DNA, its fluorescence intensity correlating to the amount of dead cells. EthD-1 emission was measured using microplate reader with excitation at 495 nm and emission at 635 nm. Student's t-test was used to assess statistical significance.

tumor = details: mouse models; cited from earlier work
[3] = Assay for lipid mixing (liposome fusion, NBD-PE/DPPRho); assay type: physicochemical; details: within 15 min
Protocol: The extent of exposure of Trp to the aqueous phase was studied using I— as a collisional quencher (Lakowicz, 1999). The extent of quenching was calculated by using the equation: F0/F=1+k[Q]=1+kqτ0[Q] where F0 and F are Trp fluorescence intensities at 345 nm in the absence and presence of the quencher, Q, τ0 is Trp fluorescence lifetime in the absence of the quencher, k is the Stern-Volmer constant (obtained from the slope of the linear fit of the data). Fluorescence of Trp in CTT (5 μM) and its quenching were measured in the absence and presence of POPC/POPE (80:20, mol/mol) LUVs (final lipid concentration of 0.5 mM). The results were corrected for background caused by PBS and liposomes. Assay for lipid mixing. The ability of the CTT, CLP, STT, and CWL peptides to induce liposome fusion was assessed by measuring lipid mixing, as described earlier (Struck et al., 1981). In brief, NBD-PE (X=0.01) and DPPRho (X=0.01) were incorporated into liposomes (POPC/POPE, 78/20, mol/mol). Due to the spectral overlap of NBD-PE (donor) emission and DPPRho (acceptor) absorption resonance energy transfer between these dyes is highly efficient. As liposomes containing NBD-PE and DPPRho are mixed with non-labeled liposomes, fusion is observed as an increase in the emission intensity of NBD-PE due to the dilution of probes. Excitation and emission wavelengths for NBD-PE at 430 nm and 530 nm were used. All fluorescence measurements were done at 37° C.

MMP-2 and MMP-9 = details: cited from earlier work
[4] = Penetration of peptides into lipid monolayers (surface pressure); assay type: physicochemical; details: eggPC monolayer, peptide 200 μM
Protocol: Interaction of peptides with lipid monolayers. Penetration of peptides into mono-molecular lipid films was measured using magnetically stirred circular wells (subphase volume 400 μl). Surface pressure (π) was monitored with a Wilhelmy wire attached to a microbalance (μ TroughS, Kibron Inc., Helsinki, Finland) connected to a Pentium PC. Lipids were spread on the air-buffer (PBS, pH 7) interface in chloroform (approx. one mg/ml) to different initial surface pressures (π0) and were allowed to equilibrate for 15 min before the addition of the indicated peptides (4 μ1,10 mg/ml in H2O and CWL in DMSO) into the subphase. The increment in π from the initial surface pressures (π0) after the addition of peptide was complete in approximately 20 min and the difference between π0 and the value observed after binding of the peptide into the film was taken as Δπ. All measurements were performed at ambient temperature (˜+24° C.). The data are represented as Δπ vs. […] (Brockman, 1999).

U937 cells [5] = assay: Uptake of liposome-encapsulated rhodamine B by U937 cells; assay type: cell-based
Protocol: In another series of experiments the water-soluble fluorescent marker rhodamine B was encapsulated into liposomes and its uptake by cells was measured. Samples for rhodamine B uptake were prepared by mixing 60 μl of POPC/POPE (80/20, mol/mol, one mM) liposomes containing 10 μM rhodamine B to 300 μl of DMEM medium supplemented with 10% fetal bovine serum, Glutamax I, penicillin 100 U/ml and streptomycin 0.1 mg/ml. Peptides were then added to obtain a final concentration of […]. Ten μl (10^5 cells) of medium containing the indicated cells were combined with the LUVs. After an incubation for 15 min at 37° C. or +4° C. liposomes not bound to the cells were removed from 96-well plates by rinsing three times with cold PBS. The +4° C. temperature served as a control for non-endocytotic liposome uptake by cells (Oess and Hildt, 2000). The relative amount of rhodamine B associated with the cells was determined using microplate reader with excitation at 535 nm and emission at 595 nm.
We also preincubated cells with phorbol ester (TPA) (50 nM). Preincubation times varied from 15 to 75 min. Treatment of cells by phorbol ester (TPA) increases both expression and secretion of MMP-9 (Toth et al., 1997). Results are presented as RFI=I/I0, where RFI is relative fluorescence intensity, I0 is the emission intensity for the control, 2 μM rhodamine B in LUVs without the peptides, and I is the rhodamine emission for the peptide-liposome complexes taken up by the cells. […] M-17 inhibits the binding of MMP-9 to the substrate and this inhibition is expected to be concentration dependent. It is not known if rabbit polyclonal antibody blocks human MMP-2 (Murphy et al., 1994). Final concentrations of the indicated peptide, […] were 85 μM, 0.2 mM, 20 μg/ml, and 0.4 μM, respectively.
Cell cultures and fluorescence microscopy. U937 (ECACC 85011440), HT 1080 (ECACC 85111505), and CHO (ECACC 85050302) cells were cultured in RPMI or DMEM medium supplemented with 10% fetal bovine serum, Glutamax I, penicillin (100 U/ml), and streptomycin (0.1 mg/ml). Uptake of rhodamine B containing liposomes by the cultured cells was verified by fluorescence microscopy. An inverted fluorescence microscope (Zeiss IM 35) equipped with Nikon extra long working distance objectives (20×) and (40×) were used. Samples were prepared as described for the rhodamine uptake assay, with slight modifications. Accordingly, instead of washing, U937, HT 1080, and CHO cells with the rhodamine-containing liposomes and in cell culture medium were transferred into Nunclon 48 plate wells. Excitation and emission wavelengths were selected by suitable bandpass filters (Melles-Griot) transmitting in the range 535 nm and >600 nm, respectively. Fluorescence images were viewed with a Peltier-cooled digital camera (C4742-95, Hamamatsu, Japan) connected to a computer and operated by software (Hipic 5.0) provided by the instrument manufacturer.

[6] = tested on: endothelial and tumor cell migration; details: cited from earlier work

- Stern-Volmer constant ([1]; absence of liposomes): 0.0087
- Stern-Volmer constant ([1]; presence of liposomes): 0.0034
- Lipid mixing / vesicle fusion (NBD-PE emission) [3]: lack of lipid mixing
- Initial monolayer packing pressure above which membrane penetration was abolished [4]: 38 mN/m
Compound: CC(C)C[C@@H]1NC(=O)[C@H]([C@@H](C)O)NC(=O)[C@H](Cc2ccccc2)NC(=O)CNC(=O)[C@H](Cc2c[nH]c3ccccc23)NC(=O)[C@H](Cc2c[nH]cn2)NC(=O)[C@H]([C@@H](C)O)NC(=O)[C@H]([C@@H](C)O)NC(=O)[C@@H](N)CSSC[C@@H](C(=O)O)NC1=O [CTT] (H-CTTHWGFTLC-OH; disulfide 1-10; N-terminus and C-terminus assumed)
- Increase in killing of cells vs Adriamycin liposomes without peptide (U937 cells [2]): 4.1 fold
- Tumor progression in vivo (tumor): inhibited
- Selective inhibition of MMP family members (MMP-2 and MMP-9): selectively inhibit the activity of MMP-2 and MMP-9
- Enhancement of uptake of liposome-encapsulated rhodamine vs liposomes lacking peptide (U937 cells [5]; U937, fluorescence plate-reader): 3.6 fold
- Rhodamine intake, fluorescence microscopy (U937 cells [5]; U937, liposomes with vs without CTT): enhanced
- Uptake of free rhodamine B (U937 cells [5]; no liposomes): did not promote
- Endothelial and tumor cell migration in vitro [6]: inhibited
